Peptide text beside a SMILES is read from it.
The compounds below were run on eIF2-GTP-Met-tRNAi ternary complex (assay: Ternary complex assay (dual luciferase, firefly/renilla ratio) in stable KLN-tTA/pBISA-DL(ATF-4) cells; HTS and hit confirmation). Settings: KLN-tTA/pBISA-DL(ATF-4) colonies, assay validation.
Format: cell-based, mouse
In the case of `COc1cc([C@@H]2c3cc4c(cc3[C@@H](O[C@@H]3O[C@@H]5CO[C@@H](C)O[C@H]5[C@H](O)[C@H]3O)[C@H]3COC(=O)[C@H]23)OCO4)cc(OC)c1O` [etoposite, reference compound], the “Effect on firefly/renilla luciferase ratio” value is reported as “no effect”.

What follows are compounds tested on eIF2-GTP-Met-tRNAi ternary complex (assay: Ternary complex / ATF-4 dual luciferase assay in human cancer cell lines co-transfected with tTA and pBISA-DL(ATF-4) (CRL-2351, PC-3, CRL-2813)). Settings: CRL-2351 cell line.
Format: cell-based
Experimental: FIGS. 8A-8D depict that N,N′-diarylureas reduce the availability of the eIF2-GTP-Met-tRNAi ternary complex in human cancer cells. A-C) PC-3, CR-L2351, and CRL-2813 human cancer cell lines were co-transfected with pBISA-DL^(ATF-4) and ptTA plasmids. One day post-transfection, the cells were treated with the indicated concentrations of N,N′-diarylureas. Firefly/renilla ratio was determined by DLR assay 8 hours after treatment. D) PC-3, CR-L2351, and CRL-2813 human cancer cell lines were treated with the indicated concentrations of N,N′-diarylureas four 8 hours, and expression of endogenous CHOP mRNA was determined by real-time PCR.
For example, reducing amount of the ternary complex increases translation of ATF-4, which results in elevated expression of CHOP mRNA and protein. Therefore, expression of endogenous CHOP mRNA and CHOP protein in KLN-tTA/pBISA-DL^(ATF-4) cells were utilized as secondary assays to validate N,N′-diarylurea compounds as modifiers of the eIF2⋅GTP⋅Met-tRNAi ternary complex. […] To rule out the possibility that the activity of N,N′-diarylurea compounds was confined to a single cell type, the effects of these compounds on the ternary complex assay and the expression of CHOP mRNA was assayed in CRL-2351, PC-3, CRL-2813 human breast, prostate, and melanoma cancer cell lines respectively. For the reporter gene assay, the three human cell lines were co-transfected with tTA expression vector and the pBISA-DL^(ATF-4) dual luciferase expression vector shown in FIG. 6. […] The expression of CHOP mRNA was assayed by real time PCR in the same cell lines treated with 5 or 20 μM of each compound. […]
Stable and transient transfection: Cells were seeded at the density of 10^5 in 60-mm (stable transfection) or 10^4 cells per well of 96-well plate (transient transfection) plates and transfected one day later using the Qiagen Transfectamine transfection kit. For selection of stable cell lines, transfected cells were transferred to 100-mm plates and selected with appropriate antibiotics.
Dual luciferase assay: Cells or minced tumors expressing firefly and renilla luciferases were lysed and the extracts assayed with a glow type dual luciferase assay kit, per manufacturer's instruction (Promega Inc., Madison, Wis.).
For `O=C(Nc1ccc(Cl)c(Cl)c1)Nc1ccc(Cl)c(Cl)c1` [Compound 1, 1,3-bis(3,4-dichlorophenyl)urea], the “ATF-4 Cmax (concentration corresponding to the maximal activity)” value (“ATF-4 Cmax” below) was 5 µM.
For `O=C(Nc1ccc(Cl)c(C(F)(F)F)c1)Nc1ccc(Cl)c(C(F)(F)F)c1` [Compound 2, 1,3-bis[4-chloro-3-(trifluoromethyl)phenyl]urea], the “ATF-4 Cmax” value was 2.4 µM.
`O=C(Nc1cc(C(F)(F)F)cc(C(F)(F)F)c1)Nc1cc(C(F)(F)F)cc(C(F)(F)F)c1` [Compound 3, 1,3-bis[3,5-bis(trifluoromethyl)phenyl]urea] was tested, and the “ATF-4 Cmax” value was 2.5 µM.
`Cc1ccc(NC(=O)Nc2ccc(Cl)c(Cl)c2)cc1O` [Compound 4, 3-(3,4-dichlorophenyl)-1-(3-hydroxy-4-methylphenyl)urea] was tested, and the “ATF-4 Cmax” value was 20 µM.
With `Cc1ccc(NC(=O)Nc2ccc(Cl)c(C(F)(F)F)c2)cc1O` [Compound 5, 3-[4-chloro-3-(trifluoromethyl)phenyl]-1-(3-hydroxy-4-methylphenyl)urea] the “ATF-4 Cmax” value was 10 µM.
With `Cc1ccc(NC(=O)Nc2cc(C(F)(F)F)cc(C(F)(F)F)c2)cc1O` [Compound 6, 3-[3,5-bis(trifluoromethyl)phenyl]-1-(3-hydroxy-4-methylphenyl)urea] the “ATF-4 Cmax” value was 5 µM.
For `COc1cc(NC(=O)Nc2ccc(Cl)c(C(F)(F)F)c2)ccc1C` [Compound 8], the “ATF-4 Cmax” value was 10 µM.
For `COc1cc(NC(=O)Nc2cc(C(F)(F)F)cc(C(F)(F)F)c2)ccc1C` [Compound 9], the “ATF-4 Cmax” value was 20 µM.
For `Cc1ccc(NC(=O)Nc2ccc(Cl)c(Cl)c2)cc1OCCN(C)C` [Compound 11, 3-(3,4-dichlorophenyl)-1-{3-[2-(dimethylamino)ethoxy]-4-methylphenyl}urea], the “ATF-4 Cmax” value was 20 µM.
For `Cc1ccc(NC(=O)Nc2ccc(Cl)c(C(F)(F)F)c2)cc1OCCN(C)C` [Compound 12, 3-[4-chloro-3-(trifluoromethyl)phenyl]-1-{3-[2-(dimethylamino)ethoxy]-4-methylphenyl}urea], the “ATF-4 Cmax” value was 10 µM.
In the case of `Cc1ccc(NC(=O)Nc2cc(C(F)(F)F)cc(C(F)(F)F)c2)cc1OCCN(C)C` [Compound 13, 3-[3,5-bis(trifluoromethyl)phenyl]-1-{3-[2-(dimethylamino)ethoxy]-4-methylphenyl}urea], the “ATF-4 Cmax” value is reported as 10 µM.
For `Cc1ccc(NC(=O)Nc2ccc(Cl)c(Cl)c2)cc1OCCN1CCOCC1` [Compound 15, 3-(3,4-dichlorophenyl)-1-{4-methyl-3-[2-(morpholin-4-yl)ethoxy]phenyl}urea], the “ATF-4 Cmax” value was 10 µM.
With `Cc1ccc(NC(=O)Nc2ccc(Cl)c(C(F)(F)F)c2)cc1OCCN1CCOCC1` [Compound 16, 3-[4-chloro-3-(trifluoromethyl)phenyl]-1-{4-methyl-3-[2-(morpholin-4-yl)ethoxy]phenyl}urea] the “ATF-4 Cmax” value was 10 µM.
With `Cc1ccc(NC(=O)Nc2cc(C(F)(F)F)cc(C(F)(F)F)c2)cc1OCCN1CCOCC1` [Compound 17, 3-[3,5-bis(trifluoromethyl)phenyl]-1-{4-methyl-3-[2-(morpholin-4-yl)ethoxy]phenyl}urea] the “ATF-4 Cmax” value was 10 µM.
`Cc1ccc(NC(=O)Nc2ccc(Cl)c(Cl)c2)cc1OCCN1CCNCC1` [Compound 23, 4-[2-(5-{[(3,4-dichlorophenyl)carbamoyl]amino}-2-methylphenoxy)ethyl]piperazine-1,4-diium dichloride] was tested, and the “ATF-4 Cmax” value was 10 µM.
With `Cc1ccc(NC(=O)Nc2cc(C(F)(F)F)cc(C(F)(F)F)c2)cc1OCCN1CCNCC1` [Compound 25, 4-{2-[5-({[3,5-bis(trifluoromethyl)phenyl]carbamoyl}amino)-2-methylphenoxy]ethyl}piperazine-1,4-diium dichloride] the “ATF-4 Cmax” value was 10 µM.
With `O=C(Nc1ccc(Cl)c(Cl)c1)Nc1ncccc1O` [Compound 26] the “ATF-4 Cmax” value was 40 µM.
For `O=C(Nc1ccc(Cl)c(C(F)(F)F)c1)Nc1ncccc1O` [Compound 27], the “ATF-4 Cmax” value was 40 µM.

What follows are compounds tested on eIF2-GTP-Met-tRNAi ternary complex (assay: Ternary complex activity (cell line not stated)). Settings: not given.
Format: cell-based
For `CN(C(=O)Nc1cc(C(F)(F)F)cc(C(F)(F)F)c1)c1cc(C(F)(F)F)cc(C(F)(F)F)c1`, the “Maximum effect (Emax, fold over control)” value was 13 fold over control and the “Maximum effective dose Cmax” value was 10 µM.
`COc1cc(N(C)C(=O)Nc2cc(C(F)(F)F)cc(C(F)(F)F)c2)ccc1C` was tested, and the “Maximum effect (Emax, fold over control)” value was “Inactive”.
`Cc1ccc(N(C)C(=O)Nc2cc(C(F)(F)F)cc(C(F)(F)F)c2)cc1O` was tested, and the “Maximum effect (Emax, fold over control)” value was 8.5 fold over control and the “Maximum effective dose Cmax” value was 80 µM.

These compounds were tested on eIF2-GTP-Met-tRNAi ternary complex (assay: Ternary complex assay (dual luciferase, firefly/renilla ratio) in stable KLN-tTA/pBISA-DL(ATF-4) cells; HTS and hit confirmation). Settings: anti-cancer agents at 20 μM, ternary complex assay.
Format: cell-based, mouse
`N=C(N)NC(=O)c1nc(Cl)c(N)nc1N` [Amiloride] was tested, and the “Relative F-luc/R-luc Ratio (+/− SEM)” value was 1.1 + 0.3.
`Clc1ccccc1C(c1ccccc1)(c1ccccc1)n1ccnc1` [CLT, clotrimazole, reference compound] was tested, and the “Relative F-luc/R-luc Ratio (+/− SEM)” value was 6 + 1.1.
`CC[C@@]1(O)C(=O)OCc2c1cc1n(c2=O)Cc2cc3ccccc3nc2-1` [Camptothecin] was tested, and the “Relative F-luc/R-luc Ratio (+/− SEM)” value was 1.3 + 0.3.
In the case of `COc1cc2c(c(OC)c1OC)-c1ccc(OC)c(=O)cc1[C@@H](NC(C)=O)CC2` [Colchicine], the “Relative F-luc/R-luc Ratio (+/− SEM)” value is reported as 1.2 + 0.3.
With `CC(C)Cn1c(=O)n(C)c(=O)c2[nH]cnc21` [Compound 3-isobutyl-1-methylxanthine] the “Relative F-luc/R-luc Ratio (+/− SEM)” value was 1.1 + 0.2.
`O=c1[nH]cc(F)c(=O)[nH]1` [Compound 5-fluorouracil, 5-fluorouracil] was tested, and the “Relative F-luc/R-luc Ratio (+/− SEM)” value was 1 + 0.2.
With `COc1ccc([C@@H]2Sc3ccccc3N(CCN(C)C)C(=O)[C@@H]2OC(C)=O)cc1` [Dilthiazem] the “Relative F-luc/R-luc Ratio (+/− SEM)” value was 1.4 + 0.4.
`CC(=O)O.NCC(=O)N[C@@H](Cc1c[nH]cn1)C(=O)O` [Glycyl-1-histidyl acetate] (H-Gly-His-OH) was tested, and the “Relative F-luc/R-luc Ratio (+/− SEM)” value was 1 + 0.1.
`CO[C@@]12[C@H](COC(N)=O)C3=C(C(=O)C(C)=C(N)C3=O)N1C[C@@H]1N[C@@H]12` [Mitomycin C] was tested, and the “Relative F-luc/R-luc Ratio (+/− SEM)” value was 0.9 + 0.3.
In the case of `C=C1[C@@H](O)[C@@H]2O[C@]3(CC[C@H](/C=C/[C@@H](C)[C@@H]4CC(C)=C[C@@]5(O[C@H](C[C@@](C)(O)C(=O)O)CC[C@H]5O)O4)O3)CC[C@H]2O[C@@H]1[C@@H](O)C[C@H](C)[C@H]1O[C@@]2(CCCCO2)CC[C@H]1C` [Okadaic acid], the “Relative F-luc/R-luc Ratio (+/− SEM)” value is reported as 1 + 0.3.
With `CCCCCCCCCC(=O)NC(CN1CCOCC1)C(O)c1ccccc1` (stereo not drawn) [Threo-1-phenyl] the “Relative F-luc/R-luc Ratio (+/− SEM)” value was 1.5 + 0.4.
`COc1cc([C@@H]2c3cc4c(cc3[C@@H](O[C@@H]3O[C@@H]5CO[C@@H](C)O[C@H]5[C@H](O)[C@H]3O)[C@H]3COC(=O)[C@H]23)OCO4)cc(OC)c1O` [etoposite, reference compound] was tested, and the “Relative F-luc/R-luc Ratio (+/− SEM)” value was 1 + 0.2.

— patent US9932300B2, “N,N′-diarylurea compounds and N,N′-diarylthiourea compounds as inhibitors of translation initiation” (President and Fellows of Harvard College, priority 2009, dated 2018)
